The values that follow are results of earlier work, collected in patent US20240316044A1, “GRANULATE COMPOSITION COMPRISING NILOTINIB” (HELM AG, priority 2021, published 2024).

Counter-ions that a name gives are not always drawn.

Consider `Cc1cn(-c2cc(NC(=O)c3ccc(C)c(Nc4nccc(-c5cccnc5)n4)c3)cc(C(F)(F)F)c2)cn1` [Anhydrous Nilotinib hydrochloride, 4-methyl-N-[3-(4-methyl-1H-imidazol-1-yl)-5-(trifluoromethyl)phenyl]-3-{[4-(pyridin-3-yl)pyrimidin-2-yl]amino} benzamide], for which the “BCS class (low/moderate aqueous solubility and low permeability)” value is on record as “Class IV”.
